Data: US11965006B2, “Antimicrobial and anti-cancer therapy” (UNIVERSITY OF PITTSBURGH—OF THE COMMONWEALTH SYSTEM OF …, priority 2016, dated 2024)
Entries after “also recorded” stand apart in the source; their conditions may differ. Blank lines part the entries; values can stand above or below the compound they belong to. Square brackets hold non-standard residues; d marks the D form. Ends that are not written are not given here. Peptide text beside a SMILES is read from it.

Key:
[1] = test system: Klebsiella pneumonia multi-drug resistant (MDR) clinical isolates; experiment: Bacterial growth (O.D. readings) of Kp isolates treated with D-amino acid substituted AMPs; format: cell-based
Protocol: (§1) Tables 3 and 4 provide the MIC data for the tested AMPs against a variety of infectious species. The following strains were tested: Enterococcus faecium MDR clinical isolates Ef 25153 and Ef 26125; methicillin-resistant Staphylococcus aureus (MRSA) clinical isolates USA300 and 150-10; Klebsiella pneumonia MDR clinical isolates C3, C5, A5, D7 and E6; and Pseudomonas aeruginosa MDR clinical isolates PA 82-8 and PA 129-5. […] Table 5 provides the data for the D-amino acid substituted AMPs and their bactericidal activities against various Klebsiella pneumonia multi-drug resistant (MDR) clinical isolates. All odd number Kp bacteria (isolated prior to colistin treatment; colistin sensitive) are paired with the corresponding even number Kp bacteria (isolated after colistin treatment; colistin resistant) from the same patient. O.D. readings represent the bacterial growth with a background reading of about 0.049+/−0.003.

[2] = test system: P. aeruginosa lipopolysaccharide (LPS)-induced secretion of tumor necrosis factor (TNF) in Raw (264.7) Cells; experiment: Neutralization of LPS-induced TNF secretion; format: cell-based; conditions: 1 μg/ml LPS
Protocol: Anti-inflammatory activity is based on the determination of cytokine stimulation of major inflammatory (e.g. TNF) or anti-inflammatory (e.g., IL-10) cytokines. For in vitro studies, TNF is measured using culture medium from LPS-stimulated macrophage cultures in the presence or absence of peptide treatment. For in vivo studies, cytokine levels in bronchoalveolar lavage (BAL) fluid were quantified using the mouse cytokine multiplex panel assay (Milliplex; Millipore, Billerica, Mass.). The expressions of cytokines were analyzed using the Luminex assay system, based on manufacturer's instructions and our previous publication. Standard recombinant protein solution was used to generate a standard curve for each analyzed protein. Absolute cytokine concentrations were calculated from the standard curve for each cytokine.
A high dosage (1 μg/ml) of LPS was used to stimulate the TNF secretion in raw cells.

[3] = test system: Klebsiella pneumonia MDR clinical isolates; format: cell-based; conditions: 18 h
Protocol: (§2) The bactericidal activities were examined using standard bacterial culture media (MHB) without the inclusion of human blood.
as §1

[4] = test system: methicillin-resistant Staphylococcus aureus (MRSA) clinical isolates; format: cell-based; conditions: methicillin-resistant clinical isolates, 18 h
Protocol: as §2, §1

[5] = test system: Enterococcus faecium MDR clinical isolates; format: cell-based; conditions: MDR clinical isolates, 18 h
Protocol: as §2, §1

[6] = test system: Pseudomonas aeruginosa MDR clinical isolates; format: cell-based; conditions: MDR clinical isolates, 18 h
Protocol: as §2, §1

[7] = In vivo toxicity / maximum tolerated dose; design: species or system Mice (strain: Swiss Webster)
Protocol: The modified AMPs show a lower toxicity and higher maximum tolerated dosage (MTD) than WLBU2 (SEQ ID No. 26). The MTD for WLBU2 (SEQ ID No. 26) is 15 mg/kg, for Colistin is 10 mg/kg, and SEQ ID No. 15 is 30 mg/kg (FIG. 14A).
Mice (strain: Swiss Webster) were injected with SEQ ID No. 15 peptides intravenously (i.v.) or intraperitoneally (i.p.) at the concentrations indicated. […] Thus, the estimated maximum tolerated dose (MTD) is around 40-50 mpk (i.v.). On a similar setting of testing other AMPS, the MTD for WLBU2 is 15 mpk (i.v.) and 10 mpk (i.v.) for colistin.

[8] = Kp strain 1 (colistin sensitive), background about 0.049
[9] = Kp strain 2 (colistin resistant), background about 0.049
[10] = Kp strain 3 (colistin sensitive)
[11] = Kp strain 4 (colistin resistant)
[12] = Kp strain 5 (colistin sensitive)
[13] = Kp strain 6 (colistin resistant)
[14] = Kp strain 7 (colistin sensitive)
[15] = Kp strain 8 (colistin resistant)
[16] = Kp strain 9 (colistin sensitive)
[17] = Kp strain 10 (colistin resistant)
[18] = Kp strain 11 (colistin sensitive)
[19] = Kp strain 12 (colistin resistant)
[20] = Kp strain 13 (colistin sensitive)
[21] = Kp strain 14 (colistin resistant)
[22] = Kp strain 15 (colistin sensitive)
[23] = Kp strain 16 (colistin resistant)
[24] = Kp strain 17 (colistin sensitive)
[25] = Kp strain 18 (colistin resistant)
[26] = Kp strain 19 (colistin sensitive)
[27] = Kp strain 20 (colistin resistant)
[28] = Kp strain 21 (colistin sensitive)
[29] = Kp strain 22 (colistin resistant)
[30] = Kp strain 23 (colistin sensitive)
[31] = Kp strain 24 (colistin resistant)

Compound: CC(C)[C@H](NC(=O)[C@H](Cc1c[nH]c2ccccc12)NC(=O)[C@H](CCCNC(=N)N)NC(=O)[C@@H](N)CCCNC(=N)N)C(=O)N[C@@H](CCCNC(=N)N)C(=O)N[C@@H](CCCNC(=N)N)C(=O)N[C@@H](C(=O)N[C@@H](CCCNC(=N)N)C(=O)N[C@@H](CCCNC(=N)N)C(=O)N[C@H](C(=O)N[C@@H](Cc1c[nH]c2ccccc12)C(=O)N[C@@H](CCCNC(=N)N)C(=O)N[C@@H](CCCNC(=N)N)C(=O)N[C@H](C(=O)N[C@@H](C(=O)N[C@@H](CCCNC(=N)N)C(=O)N[C@@H](C(=O)N[C@H](C(=O)N[C@@H](CCCNC(=N)N)C(=O)N[C@@H](CCCNC(=N)N)C(=O)N[C@@H](Cc1c[nH]c2ccccc12)C(=O)N[C@@H](C(=O)N[C@@H](CCCNC(=N)N)C(=O)N[C@@H](CCCNC(=N)N)C(=O)O)C(C)C)C(C)C)C(C)C)C(C)C)C(C)C)C(C)C)C(C)C [SEQ ID No. 32] (H-RRWVRR[dV]RRVWRRV[dV]R[dV]VRRW[dV]RR-OH; N-terminus and C-terminus assumed)
O.D. reading [1, 8]: 0.039
O.D. reading [1, 9]: 0.044
O.D. reading [1, 10]: 0.043
O.D. reading [1, 11]: 0.042
O.D. reading [1, 12]: 0.042
O.D. reading [1, 13]: 0.107
O.D. reading [1, 14]: 0.042
O.D. reading [1, 15]: 0.04
O.D. reading [1, 16]: 0.042
O.D. reading [1, 17]: 0.048
O.D. reading [1, 18]: 0.048
O.D. reading [1, 19]: 0.05
O.D. reading [1, 20]: 0.048
O.D. reading [1, 21]: 0.047
O.D. reading [1, 22]: 0.048
O.D. reading [1, 23]: 0.045
O.D. reading [1, 24]: 0.045
O.D. reading [1, 25]: 0.047
O.D. reading [1, 26]: 0.048
O.D. reading [1, 27]: 0.049
O.D. reading [1, 28]: 0.051
O.D. reading [1, 29]: 0.048
O.D. reading [1, 30]: 0.048
O.D. reading [1, 31]: 0.11

Compound: CC(C)[C@H](NC(=O)[C@H](Cc1c[nH]c2ccccc12)NC(=O)[C@H](CCCNC(=N)N)NC(=O)[C@@H](N)CCCNC(=N)N)C(=O)N[C@@H](CCCNC(=N)N)C(=O)N[C@@H](CCCNC(=N)N)C(=O)N[C@@H](C(=O)N[C@@H](CCCNC(=N)N)C(=O)N[C@@H](CCCNC(=N)N)C(=O)N[C@@H](C(=O)N[C@@H](Cc1c[nH]c2ccccc12)C(=O)N[C@@H](CCCNC(=N)N)C(=O)N[C@@H](CCCNC(=N)N)C(=O)N[C@H](C(=O)N[C@@H](C(=O)N[C@@H](CCCNC(=N)N)C(=O)N[C@@H](C(=O)N[C@@H](C(=O)N[C@@H](CCCNC(=N)N)C(=O)N[C@@H](CCCNC(=N)N)C(=O)N[C@@H](Cc1c[nH]c2ccccc12)C(=O)N[C@@H](C(=O)N[C@@H](CCCNC(=N)N)C(=O)N[C@@H](CCCNC(=N)N)C(=O)O)C(C)C)C(C)C)C(C)C)C(C)C)C(C)C)C(C)C)C(C)C [SEQ ID No. 33] (H-RRWVRR[dV]RR[dV]WRRV[dV]R[dV][dV]RRW[dV]RR-OH; N-terminus and C-terminus assumed)
O.D. reading [1, 8]: 0.104
O.D. reading [1, 9]: 0.108
O.D. reading [1, 10]: 0.048
O.D. reading [1, 11]: 0.047
O.D. reading [1, 12]: 0.053
O.D. reading [1, 13]: 0.12
O.D. reading [1, 14]: 0.046
O.D. reading [1, 15]: 0.056
O.D. reading [1, 16]: 0.043
O.D. reading [1, 17]: 0.131
O.D. reading [1, 18]: 0.057
O.D. reading [1, 19]: 0.066
O.D. reading [1, 20]: 0.05
O.D. reading [1, 21]: 0.089
O.D. reading [1, 22]: 0.048
O.D. reading [1, 23]: 0.054
O.D. reading [1, 24]: 0.044
O.D. reading [1, 25]: 0.048
O.D. reading [1, 26]: 0.049
O.D. reading [1, 27]: 0.05
O.D. reading [1, 28]: 0.048
O.D. reading [1, 29]: 0.05
O.D. reading [1, 30]: 0.047
O.D. reading [1, 31]: 0.076

Compound: GVKKKWKKKLGLKLWLKISGVVLG [SEQ ID No. 24, reference compound]
neutralizing LPS-induced TNF secretion [2]: Display Neutralizing Activities
MIC A5 [3]: 32 µM
MIC C3 [3]: 32 µM
MIC MRSA 150-10 [4]: >32 µM
MIC MRSA USA300 [4]: >32 µM
MIC Ef 25153 [5]: >32 µM
MIC Ef 26125 [5]: 16 µM
MIC PA 82-8 [6]: >32 µM
MIC PA 129-5 [6]: <16 µM

Compound: ILKPGGGTSGGLLGGLLGKVTSVIPGLNNI [SEQ ID No. 1, reference compound]
neutralizing LPS-induced TNF secretion [2]: display neutralizing activities
MIC A5 [3]: >32 µM
MIC C3 [3]: >32 µM
MIC C5 [3]: >32 µM
MIC D7 [3]: >32 µM
MIC E6 [3]: >32 µM
MIC MRSA 150-10 [4]: >32 µM
MIC MRSA USA300 [4]: >32 µM
MIC Ef 25153 [5]: >32 µM
MIC Ef 26125 [5]: >32 µM
MIC PA 82-8 [6]: >32 µM
MIC PA 129-5 [6]: >32 µM

MIC A5 [3]: >4 µM
MIC C3 [3]: <2 µM
MIC C5 [3]: 4 µM
MIC D7 [3]: <2 µM
MIC E6 [3]: <2 µM
MIC MRSA 150-10 [4]: <2 µM
MIC MRSA USA300 [4]: <2 µM
MIC Ef 25153 [5]: <2 µM
MIC Ef 26125 [5]: <2 µM
MIC PA82 82-8 [6]: 4 µM
MIC PA 129-5 [6]: <2 µM
Compound: LKKWWKKVKGLLGGLLGKVKKVIK [SEQ ID No. 17]

MIC A5 [3]: >4 µM
MIC C3 [3]: <2 µM
MIC C5 [3]: 4 µM
MIC D7 [3]: <2 µM
MIC E6 [3]: <2 µM
MIC MRSA 150-10 [4]: 4 µM
MIC MRSA USA300 [4]: <2 µM
MIC Ef 25153 [5]: <2 µM
MIC Ef 26125 [5]: <2 µM
MIC PA82 82-8 [6]: 4 µM
MIC PA 129-5 [6]: 4 µM
Compound: LKKWWKKVKGLLGGLLGKVKSVIK [SEQ ID No. 16]

Compound: LKKWWKKVKGLLGGLLGKVTSVIK [SEQ ID No. 15]
tolerability ([7]; 60 mg/kg i.v.): One mouse injected with 60 mg/kg (mpk, i.v.) died
tolerability ([7]; 30 mpk i.p.): all mice were active and tolerated the dosage
tolerability ([7]; 40 mpk i.v.): all mice were active and tolerated the dosage
MTD ([7]; Swiss Webster, mouse, in vivo, FIG. 14A, read-out: maximum tolerated dosage (MTD)): 30 mg/kg
in vivo toxicity ([7]; figure legends FIG. 14A, FIG. 30): lower toxicity (higher MTD) than WLBU2; also recorded: very low in vivo toxicity
maximum tolerated dose (MTD) ([7]; i.v., Swiss Webster mice): 40-50 mpk
MIC A5 [3]: >4 µM
MIC C3 [3]: <2 µM
MIC C5 [3]: 4 µM
MIC D7 [3]: 2 µM
MIC E6 [3]: 2 µM
MIC MRSA 150-10 [4]: 2 µM
MIC MRSA USA300 [4]: 4 µM
MIC Ef 25153 [5]: 2 µM
MIC Ef 26125 [5]: <1 µM
MIC PA82 82-8 [6]: 2 µM
MIC PA 129-5 [6]: 1 µM

Compound: LKKWWKTSKGLLGGLLGKVTSVIK [SEQ ID No. 13]
neutralizing LPS-induced TNF secretion [2]: Display Neutralizing Activities
MIC A5 [3]: >16 µM
MIC C3 [3]: >16 µM
MIC C5 [3]: 16 µM
MIC D7 [3]: <8 µM
MIC E6 [3]: <8 µM
MIC MRSA USA300 [4]: <8 µM
MIC Ef 25153 [5]: <16 µM
MIC Ef 26125 [5]: <8 µM
MIC PA82 82-8 [6]: 16 µM
MIC PA 129-5 [6]: <16 µM

Compound: LLGDFFRKSKEKIGKEFKRIVQRIKDFLRNLLPRTES [SEQ ID No. 25, reference compound]
neutralizing LPS-induced TNF secretion [2]: Do Not Neutralize
MIC A5 [3]: >32 µM
MIC C3 [3]: 32 µM
MIC C5 [3]: >32 µM
MIC D7 [3]: <16 µM
MIC E6 [3]: <16 µM
MIC MRSA 150-10 [4]: 32 µM
MIC MRSA USA300 [4]: >32 µM
MIC Ef 25153 [5]: <16 µM
MIC Ef 26125 [5]: <16 µM
MIC PA 82-8 [6]: 32 µM
MIC PA 129-5 [6]: 16 µM
